Measurements as given in PMC7251097, “Aspartate/asparagine-β-hydroxylase: a high-throughput mass spectrometric assay for discovery of small molecule inhibitors” (Scientific Reports, 2020).
Where a name gives a salt, the structure may show the parent alone. Read-outs that look alike come from different tables or passages of the source. Values belong to the compound of their own block, whether it stands above or below them.

Target: T1, His6-AspH315–758 (human aspartate/asparagine-β-hydroxylase, AspH) (Homo sapiens, UniProt Q12797)
T1 construct: N-Terminally His6-tagged human AspH315–758 (His6-AspH315–758) was produced in E. coli BL21 (DE3) cells; made in house; host or cells: E. coli BL21 (DE3), pET-28a(+) vector
T1 sequence (Q12797 315-758): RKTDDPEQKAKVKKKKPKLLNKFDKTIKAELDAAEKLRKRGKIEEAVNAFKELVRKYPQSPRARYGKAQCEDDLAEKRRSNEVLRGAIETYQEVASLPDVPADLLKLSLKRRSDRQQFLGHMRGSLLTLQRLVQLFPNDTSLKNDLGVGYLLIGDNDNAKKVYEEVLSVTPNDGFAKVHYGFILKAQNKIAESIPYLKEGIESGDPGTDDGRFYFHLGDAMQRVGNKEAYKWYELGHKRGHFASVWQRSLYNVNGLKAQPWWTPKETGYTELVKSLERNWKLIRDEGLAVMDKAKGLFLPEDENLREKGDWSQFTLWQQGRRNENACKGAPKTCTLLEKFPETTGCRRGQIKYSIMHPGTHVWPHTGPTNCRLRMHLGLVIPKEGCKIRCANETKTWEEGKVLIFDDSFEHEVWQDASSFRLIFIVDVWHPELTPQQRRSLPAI
Assay: SPE-MS AspH inhibition assay (LOPAC screen at fixed 20 μM and IC50 dose-response), hydroxylation of cyclic peptide hFX-CP101–119
Type: biochemical
Details: for inhibition at 20 µM: read-out: Plate 2 (% inhibition); for Plate 1 (% inhibition) / Plate 1 (% conversion): LOPAC compound at fixed 20 uM; for Plate 1 (% inhibition): plate 1, normalised to DMSO and 2,4-PDCA controls

[1] = LOPAC compound at 20uM, plate 2, conversion of substrate peptide
[2] = LOPAC compound at 20uM, plate 2, normalised to DMSO and 2,4-PDCA controls
[3] = LOPAC Plate 4, compound at 20 uM, substrate conversion
[4] = LOPAC Plate 4, compound at 20 uM
[5] = LOPAC compound at 20uM, plate 3, conversion of substrate peptide

Structure (SMILES): COc1cc(OC)c(C=C2C(O)=Nc3ccccc32)c(OC)c1 [IC 261]
% conversion: 29.42%

Structure (SMILES): CCCn1c(=O)c(C)cn2nc(N)nc12 [ICI 63,137]
% conversion: 30.53%

Plate 2 (% conversion) [1]: 39.35%
Plate 2 (% inhibition) [2]: -10.13%
Structure (SMILES): Cl.Fc1ccc(CN(C2=NCCN2)c2c(Cl)cccc2Cl)cc1 [IMID-4F hydrochloride]

% conversion [3]: 32.74%
Structure (SMILES): COc1ccc(/C=C2\COc3ccc(C)cc3C2=O)cc1O [IMS2186]

Inhibition at 20 µM [%] (AspH activity, fixed compound concentration 20 μM, initial LOPAC screen, 0.5%v/v DMSO): 100.0%
% conversion [3]: 2.34%
Structure (SMILES): Oc1ccc2ccccc2c1SSc1c(O)ccc2ccccc12 [IPA-3, reference compound]

% inhibition [4]: -1.55%
% conversion [3]: 37.00%
Structure (SMILES): O=C(Nc1nc2ccccc2n1CCN1CCOCC1)c1cccc([N+](=O)[O-])c1 [IRAK-1/4 Inhibitor I]

Structure (SMILES): CCCCCN(C)CCC(O)(P(=O)([O-])O)P(=O)(O)O.[Na+] [Ibandronate sodium]
% conversion [3]: 30.05%

Plate 2 (% conversion) [1]: 39.05%
inhibition at 20 µM [2]: -9.26%
Structure (SMILES): CC(C)C(=O)c1c(C(C)C)nn2ccccc12 [Ibudilast]

Plate 2 (% conversion) [1]: 34.69%
inhibition at 20 µM [2]: 3.78%
Structure (SMILES): CC(=O)[C@]1(O)Cc2c(O)c3c(c(O)c2[C@@H](O[C@H]2C[C@H](N)[C@H](O)[C@H](C)O2)C1)C(=O)c1ccccc1C3=O [Idarubicin]

Plate 3 (% conversion) [5]: 39.66%
Structure (SMILES): c1ccc2c(c1)OCC(C1=NCCN1)O2 (centres unmarked) [Idazoxan hydrochloride]

Plate 3 (% conversion) [5]: 17.74%
Structure (SMILES): CC(C(O)c1ccc(O)cc1)N1CCC(Cc2ccccc2)CC1.CC(C(O)c1ccc(O)cc1)N1CCC(Cc2ccccc2)CC1.O=C(O)C(O)C(O)C(=O)O (centres unmarked) [Ifenprodil tartrate]

Plate 2 (% conversion) [1]: 38.21%
inhibition at 20 µM [2]: -6.74%
Structure (SMILES): O=C1CCC(c2ccc(-n3ccnc3)cc2)=NN1 [Imazodan]

Structure (SMILES): N=C(N)SCCc1cnc[nH]1 [Imetit dihydrobromide]
Plate 3 (% conversion): 29.48%

Structure (SMILES): Cl.O=C(O)Cc1c[nH]cn1 [Imidazole-4-acetic acid hydrochloride]
Plate 2 (% conversion): 36.46%
Plate 2 (% inhibition) (20 µM): -1.52%

Plate 1 (% inhibition): 6.01%
Plate 1 (% conversion) (substrate conversion): 33.85%
Structure (SMILES): C[C@@H](O)[C@H]1C(=O)N2C(C(=O)O)=C(SCCN=CN)C[C@H]12 [Imipenem monohydrate]

Structure (SMILES): CN[C@@H]1C[C@@H](c2ccc(Cl)c(Cl)c2)c2ccccc21 [Indatraline hydrochloride]
Plate 3 (% conversion): 41.79%

Structure (SMILES): CC(C)(C)NC(=O)[C@@H]1CN(Cc2cccnc2)CCN1C[C@@H](O)C[C@@H](Cc1ccccc1)C(=O)N[C@H]1c2ccccc2C[C@H]1O.O=S(=O)(O)O [Indinavir sulfate salt hydrate]
Plate 1 (% inhibition): -10.28%
Plate 1 (% conversion) (substrate conversion): 39.32%

Plate 1 (% inhibition): 11.42%
Plate 1 (% conversion) (substrate conversion): 32.04%
Structure (SMILES): O=C1Nc2ccccc2/C1=C1/Nc2ccccc2/C1=N\O [Indirubin-3-oxime]

Structure (SMILES): NC(=O)CI [Iodoacetamide, reference compound]
Inhibition at 20 µM [%]: 102.0%

Plate 3 (% conversion) [5]: 39.38%
Structure (SMILES): CC(C)NNC(=O)c1ccncc1.O=P(O)(O)O [Iproniazid phosphate]

Plate 3 (% conversion) [5]: 31.17%
Structure (SMILES): O=C(/C=C/c1ccc(O)cc1)c1ccc(O)cc1O [Isoliquiritigenin]

Structure (SMILES): CCC(NC(C)C)C(O)c1ccc(O)c(O)c1.CS(=O)(=O)O (centres unmarked) [Isotharine mesylate]
Plate 3 (% conversion) [5]: 6.91%

Plate 2 (% conversion) [1]: 12.89%
Plate 2 (% inhibition) [2]: 68.90%
Structure (SMILES): O=C1c2ccccc2C(=O)c2c(NCCc3ccc(O)cc3)ccc(NCCc3ccc(O)cc3)c21 [JFD00244]

IC50 (50 nM His6-AspH315–758, 1.0 μM hFX-CP101–119, 3 μM 2OG, 2 μM Fe(II), 50 mM HEPES pH 7.5, 20 °C, mean ± SD, n = 2 (2,4-PDCA n = 10), read-out: IC50): 4.24 ± 0.3 µM
Structure (SMILES): Clc1ccc(N/N=C(\c2ccccc2)c2ccccn2)nc1 [JIB-04, reference compound]

Plate 2 (% conversion) [1]: 45.70%
Plate 2 (% inhibition) [2]: -29.09%
Structure (SMILES): COc1cc(SC)ccc1C(=O)N1CCC(Cc2ccccc2)CC1 [JX401]

% inhibition [4]: -22.55%
% conversion [3]: 44.17%
Structure (SMILES): N=C(N)SCCc1ccc(OCc2ccc([N+](=O)[O-])cc2)cc1 [KB-R7493]

Structure (SMILES): C=C(C)[C@H]1CN[C@H](C(=O)O)[C@H]1CC(=O)O [Kainic acid]
Plate 3 (% conversion): 38.81%

Plate 3 (% conversion) [5]: 35.01%
Structure (SMILES): O=C1Cc2c([nH]c3ccc(Br)cc23)-c2ccccc2N1 [Kenpaullone]
